Source: US20040198609A1, “4-alkyl-substituted thienyloxy-pyridines” (priority 2001, published 2004)

How the values were obtained:
Assay in all cases: greenhouse post-emergence herbicidal test
Format in all cases: in vivo
Details in all cases: application rates of 0.25 or 0.125 kg/ha
Amaranthus retroflexus = test system: Amaranthus retroflexus
From the text: (§1) The seeds of the test plants were sown separately for each species. For the post-emergence treatment, the test plants were first grown to a height of from 3 to 15 cm, depending on the plant habit, and only then treated with the active compounds which had been suspended or emulsified in water. The test plants were for this purpose either sown directly and grown in the same containers, or they were first grown separately as seedlings and transplanted into the test containers a few days prior to treatment. The application rate for the post-emergence treatment was 0.25 or 0.125 kg of a.s. (active substance)/ha. Depending on the species, the plants were kept at 10-25° C. or 20-35° C. The test period extended over 2 to 4 weeks. During this time, the plants were tended, and their response to the individual treatments was evaluated. Evaluation was carried out using a scale from 0 to 100. 100 means no emergence of the plants, or complete destruction of at least the above-ground parts, and 0 means no damage, or normal course of growth. The plants used in the greenhouse experiments were of the following species: [table]

Chenopodium album = test system: Chenopodium album
From the text: as §1

Galium aparine = test system: Galium aparine
From the text: as §1

Pharbitis purpurea = test system: Pharbitis purpurea
From the text: as §1

Measured: post-emergence action

Cc1c(F)c(Oc2csc(C(F)(F)F)c2)nc(-n2ccc(C(F)(F)F)n2)c1F [compound 3.1, 3,5-Difluoro-4-methyl-2-(3-trifluoromethyl-1H-pyrazol-1-yl)-6-(5-trifluoromethyl-3-thienyloxy)pyridine]
very good: all assays above
